In publication PMC7990499, “eIF2B conformation and assembly state regulate the integrated stress response” (eLife, 2021) one finds IC50 data, which are given here for one compound.

Molecules are shown by their SMILES.

The IC50 is the concentration needed to halve the response being measured. Low values mean higher potency, high ones lower potency.

The test has as its target T1, eIF2B decamer, eIF2B(αβδγε)2 (ISRIB pocket at the eIF2Bβ/eIF2Bδ interface) (Homo sapiens, UniProt P49770+Q9UI10).
T1 construct: gene EIF2B2; full eIF2B(αβδγε)2 decamer assembled from purified eIF2Bβγδε and eIF2Bα2; with eIF2Bβ (EIF2B2), with eIF2Bα, eIF2Bγ, eIF2Bε
Description: fluorescence polarization competition with FAM-ISRIB; also FRET assembly of tetramers (EC50 […]), re-refined cryo-EM model. Type of test: binding. (In general: In fluorescence polarisation assays a small probe gives low polarisation when free and higher when bound to something large.)

In turn, `O=C(COc1ccc(Cl)cc1)N[C@H]1CC[C@H](NC(=O)COc2ccc(Cl)cc2)CC1` [ISRIB] had an IC50 of 37 nM.
